Experimental data from ChEMBL document CHEMBL1177695, “Discovery and development of natural product-derived chemotherapeutic agents based on a medicinal chemistry approach” (J Nat Prod, 2010).
Values after ≈ are worked out from the molar mass of the structure shown. Active and inactive are the calls of the source. The rule behind the calls is not given here.

Tests used:
[1] = Cytotoxicity against vincristine-resistant human KB/VCR cells overexpressing P-glycoprotein; assay type: functional, cell-based
[2] = Cytotoxicity against human KB-7d cells expressing multidrug-resistant protein; assay type: functional, cell-based; settings: KB7D
[3] = Inhibition of tubulin polymerization
KB [4] = experiment: Cytotoxicity against human KB cells; assay type: functional, cell-based
KB [5] = experiment: Cytotoxicity against CPT-resistant human KB cells […] reduced level of topoisomerase; assay type: functional, cell-based
Hep-2 (human) = experiment: Cytotoxicity against human Hep-2 cells; settings: for EC50: read-out: ED50 (the source's name)
HCT-8 = experiment: Cytotoxicity against human HCT8 cells after 3 days by sulforhodamine B assay; assay type: functional, cell-based; settings: HCT-8, 72 h
[6] = Cytotoxicity against human KBVIN cells after 3 days by sulforhodamine B assay; assay type: functional, cell-based; settings: 72 h
PC-3 = experiment: Cytotoxicity against human PC3 cells after 3 days by sulforhodamine B assay; assay type: functional, cell-based; settings: PC-3, 72 h
1A9 = experiment: Cytotoxicity against human 1A9 cells after 3 days by sulforhodamine B assay; assay type: functional, cell-based; settings: 1A9, 72 h
A549 [7] = experiment: Cytotoxicity against human A549 cells after 3 days by sulforhodamine B assay; assay type: functional, cell-based; settings: A549, 72 h
A-431 = experiment: Cytotoxicity against human A431 cells after 3 days by sulforhodamine B assay; assay type: functional, cell-based; settings: A-431, 72 h
HUVEC = experiment: Cytotoxicity against HUVEC after 3 days by sulforhodamine B assay; assay type: cell-based; settings: Homo sapiens, 72 h
KB [8] = experiment: Cytotoxicity against human KB cells after 3 days by sulforhodamine B assay; assay type: functional, cell-based; settings: 72 h
A549 [9] = experiment: Cytotoxicity against human A549 cells; assay type: functional, cell-based
Tubulin = experiment: Inhibition of tubulin polymerization
[10] = Antitumor activity against rat Walker 256 cells allografted in rat at 2.5 mg/kg relative to control; assay type: functional
[11] = Therapeutic index, ratio of IC50 for human H9 cells to EC50 for HIV1; assay type: cell-based; settings: read-out: TI
[12] = system: Human immunodeficiency virus 1; experiment: Antiviral activity against HIV1 infected in human H9 cells after 4 days by p24 antigen ELISA; assay type: functional, organism-based; settings: Human immunodeficiency virus 1, H9, 96 h
[13] = system: Human immunodeficiency virus 1; experiment: Anti-HIV-1 activity in human H9 cells; settings: H9, 96 h
[14] = Therapeutic index, ratio of IC50 for human H9 cells to EC50 for multidrug-resistant HIV1 RTMDR1; assay type: cell-based; settings: read-out: TI
H9 = experiment: Cytotoxicity against human H9 cells after 4 days by coulter counter; assay type: cell-based; settings: Homo sapiens, H9, 96 h
[15] = Therapeutic index, ratio of IC50 for human H9 cells to EC50 for HIV 3B; assay type: cell-based; settings: read-out: TI
[16] = system: Human immunodeficiency virus 1; experiment: Antiviral activity against HIV1 3B infected in H9 cells assessed as inhibition of viral replication by p24 antigen ELISA; assay type: functional, organism-based; settings: Human immunodeficiency virus 1, 3B, H9; read-out: EC50
[17] = system: Human immunodeficiency virus 1; experiment: Antiviral activity against multidrug-resistant HIV1 RTMDR1 infected in H9 cells assessed as inhibition of viral replication by p24 antigen ELISA; assay type: functional, organism-based; settings: Human immunodeficiency virus 1, RTMDR1, H9
KB [18] = experiment: Selectivity ratio of EC50 for human KB cells to EC50 for vincristine-resistant human KB cells; assay type: functional
P388 = experiment: Antitumor activity against mouse P388 cells allografted in mouse at 8 mg/kg relative to control; assay type: functional

Compound `COc1ccc2c(c1)C(=O)CCc1cc(OC)c(OC)c(OC)c1-2` has an EC50 [1] greater than 0.063 µg/mL, an EC50 [2] of 0.025 µg/mL (≈ 0.0761 µM) and an IC50 [3] of 1000 nM. It also gave an EC50 (KB [4]) of 0.057 µg/mL (≈ 0.174 µM) and an EC50 (KB [5]) of 0.052 µg/mL (≈ 0.158 µM).
`C[C@@H]1C[C@H]2OC(=O)[C@@H](C)[C@H]2[C@H](O)[C@]2(C)C(=O)C=C[C@@H]12` gave an EC50 (Hep-2 (human)) of 0.8 µg/mL (≈ 3.03 µM).
In the case of `COC1=C(C)C(O)=C(C(=O)/C=C/c2ccccc2)C(=O)C1(C)C` [DESMOSDUMOTIN C], the EC50 (HCT-8) is reported as 3 µg/mL (≈ 9.6 µM), the EC50 [6] is reported as 3 µg/mL (≈ 9.6 µM) and the EC50 (PC-3) is reported as 3 µg/mL (≈ 9.6 µM). The EC50 (1A9) was 3 µg/mL (≈ 9.6 µM), the EC50 (A549 [7]) was 3 µg/mL (≈ 9.6 µM) and the EC50 (A-431) was 3 µg/mL (≈ 9.6 µM). It also gave an EC50 (HUVEC) of 3 µg/mL (≈ 9.6 µM) and an EC50 (KB [8]) of 3 µg/mL (≈ 9.6 µM).
For `COc1ccc2c(CNCCCCCCO)cc3cc4c(cc3c2c1)OCO4` [listing 1 of 2 here], the IC50 (A549 [9]; a549) was 160 nM.
`Cc1ccc2c(=O)cc(-c3cccc(F)c3)[nH]c2n1` gave an IC50 (Tubulin) of 530 nM.
With `C=C1C(=O)O[C@@H]2C[C@@H](C)[C@@H]3CCC(=O)[C@@]3(C)[C@@H](O)[C@H]12` the EC50 (Hep-2 (human)) was 3.84 µg/mL (≈ 14.5 µM).
With `C=C1C(=O)O[C@H]2[C@H]1[C@@H](OC(=O)/C(C)=C/C)C/C(C)=C/C(=O)/C=C(/C)[C@@H]2O` [MOLEPHANTININ] the T/C [10] was 397%.
With `C=C(C)[C@@H]1CC[C@]2(C(=O)O)CC[C@]3(C)[C@H](CC[C@@H]4[C@@]5(C)CC[C@H](OC(=O)CCC(=O)O)C(C)(C)[C@@H]5CC[C@]43C)[C@@H]12` the selectivity ratio [11] was 4, the IC50 [12] was 16000 nM and the EC50 [13] was 4000 nM.
Work on `CCOCc1cc(=O)c2ccc3c(c2o1)[C@@H](OC(=O)C12CCC(C)(C(=O)O1)C2(C)C)[C@@H](OC(=O)C12CCC(C)(C(=O)O1)C2(C)C)C(C)(C)O3` (stereo partly specified) yielded a selectivity ratio [14] of 34, an IC50 (H9) of 12500 nM and a selectivity ratio [15] of 151. It also gave an EC50 [16] of 100 nM and an EC50 [17] of 370 nM.
For `CCC1=C(O)c2c(oc(-c3ccc(C)cc3)cc2=O)C(CC)(CC)C1=O` [6,8,8-TRIETHYL-4-METHYL DESMOSDUMOTIN B], the “Ratio EC50” value (KB [18]) was greater than 460 and the EC50 [6] was 0.03 µg/mL (≈ 0.0851 µM).
`COc1ccc2c(CNCCCCCCO)cc3cc4c(cc3c2c1)OCO4` [listing 2 of 2 here] gave an IC50 (A549 [9]; Homo sapiens, A549) of 130 nM.
For `C=C1C(=O)O[C@@H]2C[C@@H](C)[C@@H]3C=CC(=O)[C@@]3(C)[C@@H](O)[C@H]12` [HELENALIN], the T/C [10] was 316%, the T/C (P388) was 162% and the EC50 (Hep-2 (human)) was 0.08 µg/mL (≈ 0.305 µM).
Work on `COc1ccc2c(c1)C(O)CCc1cc(OC)c(OC)c(OC)c1-2` (stereo unspecified) yielded an EC50 [1] of 0.013 µg/mL (≈ 0.0393 µM), an EC50 [2] of 0.013 µg/mL (≈ 0.0393 µM) and an IC50 [3] of 2000 nM. The EC50 (KB [4]) was 0.02 µg/mL (≈ 0.0605 µM) and the EC50 (KB [5]) was 0.022 µg/mL (≈ 0.0666 µM).
`C=C(C)[C@@H]1CC[C@]2(C(=O)O)CC[C@]3(C)[C@H](CC[C@@H]4[C@@]5(C)CC[C@H](OC(=O)CCCC(=O)O)C(C)(C)[C@@H]5CC[C@]43C)[C@@H]12` gave a selectivity ratio [11] of 292, an IC50 [12] of 12800 nM and an EC50 [13] of 44 nM.
`COc1cccc(-c2cc(=O)c3ccc(C)nc3[nH]2)c1` gave an IC50 (Tubulin) of 750 nM.
`CCCc1cc(=O)c2ccc3c(c2o1)[C@@H](OC(=O)C12CCC(C)(C(=O)O1)C2(C)C)[C@@H](OC(=O)C12CCC(C)(C(=O)O1)C2(C)C)C(C)(C)O3` (stereo partly specified) gave a selectivity ratio [14] greater than 272, an IC50 (H9) greater than 37700 nM and a selectivity ratio [15] of 1860. For the same compound, the EC50 [16] was 20 nM and the EC50 [17] was 140 nM.
With `C[C@@H]1C[C@H]2OC(=O)[C@@H](C)[C@H]2[C@H](O)[C@]2(C)C(=O)CC[C@@H]12` the ED50 (Hep-2 (human)) was “inactive”.
`CCc1cc(=O)c2ccc3c(c2o1)[C@@H](OC(=O)C12CCC(C)(C(=O)O1)C2(C)C)[C@@H](OC(=O)C12CCC(C)(C(=O)O1)C2(C)C)C(C)(C)O3` (stereo partly specified) showed a selectivity ratio [14] of 718, an IC50 (H9) of 37200 nM and a selectivity ratio [15] of 116000. It also gave an EC50 [17] of 60 nM.
